The record followed here is patent US7776847B2, “Benzisothiazoles useful for treating or preventing HCV infection” (priority 2005, dated 2010).

Bounds are passed on as bounds.

The experiment concerns HCV replicon. The experiment is described as follows: HCV replicon luciferase reporter assay. Format: cell-based. The settings on record: Hepatitis C virus, Table 5; read-out: IC50. In outline: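 IC50 is the compound amount halving luciferase signal, measured after 24–48 h treatment at various concentrations. Cells carrying the HCV replicon were pre-incubated 24 h at 37° C, 5% CO2 after seeding at about 5,000–7,500 cells/well before dosing.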
For `CCCCc1ccc(C(=O)NCCNc2nsc3ccc(Cl)cc23)cc1` [Compound 421, 4-butyl-N-(2-(5-chlorobenzo[d]isothiazol-3-ylamino)ethyl)benzamide], the IC50 was under 5 µM. Then `CCCCNC(=O)c1ccc(C(=O)NCCNc2nsc3ccccc23)cc1` [Compound 422, N^1-(2-(benzo[d]isothiazol-3-ylamino)ethyl)-N^4-butylterephthalamide], with under 5 µM.

With `CCCCCOc1ccc(C(=O)NCCNc2nsc3ccc(Cl)cc23)cc1` [Compound 423, N-(2-(5-chlorobenzo[d]isothiazol-3-ylamino)ethyl)-4-(pentyloxy)benzamide], the IC50 was under 5 µM. Then `CC(C)(C)OC(=O)N1CCCC(C(=O)NCCNc2nsc3ccc(Cl)cc23)C1` (centres unmarked) [Compound 424, tert-butyl 3-(2-(5-chlorobenzo[d]isothiazol-3-ylamino)ethylcarbamoyl)piperidine-1-carboxylate], with under 5 µM; and `CC(C)(C)OC(=O)N[C@H](C(=O)NCCNc1nsc2ccc(Cl)cc12)c1ccccc1` [Compound 425, (S)-tert-butyl 2-(2-(5-chlorobenzo[d]isothiazol-3-ylamino)ethylamino)-2-oxo-1-phenylethylcarbamate], with under 5 µM.

`CC(C)NC(=O)c1ccc(C(=O)NCCNc2nsc3ccccc23)cc1` [Compound 426, N^1-(2-(benzo[d]isothiazol-3-ylamino)ethyl)-N^4-isopropylterephthalamide]: the IC50 is under 5 µM. Then `O=C(NCCNc1nsc2ccccc12)c1ccc(C(=O)NC2CC2)cc1` [Compound 427, N^1-(2-(benzo[d]isothiazol-3-ylamino)ethyl)-N^4-cyclopropylterephthalamide], with under 5 µM; and `CCCNC(=O)c1cccc(C(=O)NCCNc2nsc3ccccc23)c1` [Compound 428, N^1-(2-(benzo[d]isothiazol-3-ylamino)ethyl)-N^3-propylisophthalamide], with under 5 µM.

In the case of `CCCCNC(=O)c1cccc(C(=O)NCCNc2nsc3ccccc23)c1` [Compound 429, N^1-(2-(benzo[d]isothiazol-3-ylamino)ethyl)-N^3-butylisophthalamide], the IC50 was under 5 µM. For the compound `CC(C)NC(=O)c1cccc(C(=O)NCCNc2nsc3ccccc23)c1` [Compound 430, N^1-(2-(benzo[d]isothiazol-3-ylamino)ethyl)-N^3-isopropylisophthalamide], the IC50 was under 5 µM.

As for `O=C(NCCNc1nsc2ccccc12)c1cccc(C(=O)NC2CC2)c1` [Compound 431, N^1-(2-(benzo[d]isothiazol-3-ylamino)ethyl)-N^3-cyclopropylisophthalamide], the IC50 is under 5 µM. The value for `COc1ccc2[nH]c(C(=O)NCCNc3nsc4ccc(Cl)cc34)cc2c1` [Compound 432, N-(2-(5-chlorobenzo[d]isothiazol-3-ylamino)ethyl)-5-methoxy-1H-indole-2-carboxamide] was under 5 µM.

Regarding `O=C(NCCCNc1nsc2ccccc12)c1cc2ccc([N+](=O)[O-])cc2s1` [Compound 433, N-(3-(benzo[d]isothiazol-3-ylamino)propyl)-6-nitrobenzo[b]thiophene-2-carboxamide], the IC50 is under 5 µM. Then `c1ccc2c(NCCCNc3nsc4ccccc34)nsc2c1` [Compound 434, N^1,N^3-di(benzo[d]isothiazol-3-yl)propane-1,3-diamine], with under 5 µM; and `COc1cccc2cc(C(=O)NCCCNc3nsc4ccccc34)oc12` [Compound 435, N-(3-(benzo[d]isothiazol-3-ylamino)propyl)-7-methoxybenzofuran-2-carboxamide], with under 5 µM. For `O=C(NCCCNc1nsc2ccccc12)c1cc2cc(Cl)ccc2o1` [Compound 436, N-(3-(benzo[d]isothiazol-3-ylamino)propyl)-5-chlorobenzofuran-2-carboxamide], the IC50 was under 5 µM.

Regarding `COc1ccc2oc(C(=O)NCCCNc3nsc4ccccc34)cc2c1` [Compound 437, N-(3-(benzo[d]isothiazol-3-ylamino)propyl)-5-methoxybenzofuran-2-carboxamide], the IC50 is under 5 µM.

In general, IC50 refers to the point on the concentration scale where inhibition reaches its midpoint.
